From ChEMBL document CHEMBL1201862, “PubChem BioAssay data set” (2004)
Active and inactive are the calls of the source.

What was measured:
[1] = target: T1, Apoptotic protease-activating factor 1 (Homo sapiens, UniProt O14727); format: functional
T1 sequence (O14727 whole entry): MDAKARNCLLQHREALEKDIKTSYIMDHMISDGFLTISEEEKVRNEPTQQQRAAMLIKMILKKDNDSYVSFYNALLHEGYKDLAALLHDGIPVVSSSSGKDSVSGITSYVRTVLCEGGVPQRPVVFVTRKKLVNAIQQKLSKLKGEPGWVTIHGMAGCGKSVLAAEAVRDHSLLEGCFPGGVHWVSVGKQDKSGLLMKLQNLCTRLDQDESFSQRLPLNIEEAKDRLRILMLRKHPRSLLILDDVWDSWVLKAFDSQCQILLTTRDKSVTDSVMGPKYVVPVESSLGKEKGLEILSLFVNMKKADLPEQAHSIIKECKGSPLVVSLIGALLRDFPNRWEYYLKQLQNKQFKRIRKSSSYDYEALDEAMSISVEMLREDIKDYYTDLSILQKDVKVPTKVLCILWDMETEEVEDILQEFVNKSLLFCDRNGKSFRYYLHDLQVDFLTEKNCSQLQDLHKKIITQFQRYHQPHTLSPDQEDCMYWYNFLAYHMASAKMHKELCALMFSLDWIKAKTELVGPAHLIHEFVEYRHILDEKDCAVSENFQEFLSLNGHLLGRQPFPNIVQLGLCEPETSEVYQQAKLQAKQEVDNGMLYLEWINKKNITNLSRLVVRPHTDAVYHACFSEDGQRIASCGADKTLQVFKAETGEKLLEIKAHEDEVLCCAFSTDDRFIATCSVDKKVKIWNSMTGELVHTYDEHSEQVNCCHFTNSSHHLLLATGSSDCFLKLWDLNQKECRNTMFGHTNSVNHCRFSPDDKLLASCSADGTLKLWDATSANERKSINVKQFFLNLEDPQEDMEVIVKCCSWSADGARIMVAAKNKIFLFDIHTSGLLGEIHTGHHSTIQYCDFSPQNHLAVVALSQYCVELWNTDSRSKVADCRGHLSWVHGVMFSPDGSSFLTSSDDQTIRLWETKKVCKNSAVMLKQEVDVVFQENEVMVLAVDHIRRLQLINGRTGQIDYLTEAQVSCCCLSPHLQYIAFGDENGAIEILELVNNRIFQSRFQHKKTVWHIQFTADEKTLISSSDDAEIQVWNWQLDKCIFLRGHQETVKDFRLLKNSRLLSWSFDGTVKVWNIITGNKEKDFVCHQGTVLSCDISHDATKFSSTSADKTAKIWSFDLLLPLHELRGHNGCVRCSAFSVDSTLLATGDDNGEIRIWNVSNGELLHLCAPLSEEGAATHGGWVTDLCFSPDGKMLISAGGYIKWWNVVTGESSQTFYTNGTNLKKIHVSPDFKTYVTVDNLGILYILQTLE

[2] = target: T2, Endoribonuclease toxin MazF (Escherichia coli K-12, UniProt P0AE70); experiment: activation of MazEF endoribonuclease cleavage – biochemical, fluorescence, single-stranded RNA substrate, uHTS hits, dose response (AID 588481); format: functional
T2 sequence (P0AE70 whole entry): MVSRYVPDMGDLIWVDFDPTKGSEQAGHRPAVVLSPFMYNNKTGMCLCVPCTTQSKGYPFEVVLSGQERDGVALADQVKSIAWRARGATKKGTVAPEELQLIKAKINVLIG

[3] = target: T2, Endoribonuclease toxin MazF; experiment: substrate-only fluorescence increase artefacts – biochemical, single-stranded RNase substrate, counter-screen for MazEF activator project, dose response (AID 588502); format: functional
P388 = experiment: cells; format: functional; conditions: Mus musculus
P388/ADR = experiment: cells; format: functional; conditions: Mus musculus
SN12K1 = experiment: cells; format: functional; conditions: Homo sapiens
[4] = target: T3, Sentrin-specific protease 8 (Homo sapiens, UniProt Q96LD8); format: functional
T3 sequence (Q96LD8 whole entry): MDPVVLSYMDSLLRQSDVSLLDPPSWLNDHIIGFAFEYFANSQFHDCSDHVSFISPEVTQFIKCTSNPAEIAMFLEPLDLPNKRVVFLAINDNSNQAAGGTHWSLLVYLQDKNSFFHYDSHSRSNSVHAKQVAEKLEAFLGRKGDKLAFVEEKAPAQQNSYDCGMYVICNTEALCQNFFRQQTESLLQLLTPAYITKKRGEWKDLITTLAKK

[5] = target: T3, Sentrin-specific protease 8; format: functional; remark: listed apart in the source
Caspase-6 = target: T4, Caspase-6 (Homo sapiens, UniProt P55212); experiment: inhibition of CASP6 peptide cleavage – biochemical, VEID-R110 fluorescence, cherry-pick, dose response (AID 720632)
T4 sequence (P55212 whole entry): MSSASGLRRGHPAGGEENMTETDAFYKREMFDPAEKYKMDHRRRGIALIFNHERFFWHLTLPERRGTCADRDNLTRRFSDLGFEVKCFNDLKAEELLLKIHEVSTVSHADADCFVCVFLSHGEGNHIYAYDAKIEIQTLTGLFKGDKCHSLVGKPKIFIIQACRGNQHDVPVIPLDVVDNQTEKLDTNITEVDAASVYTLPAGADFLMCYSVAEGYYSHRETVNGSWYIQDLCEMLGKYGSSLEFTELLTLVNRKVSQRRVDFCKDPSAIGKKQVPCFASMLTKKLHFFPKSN

Prothrombin = Prothrombin (Bos taurus, UniProt P00735); experiment: thrombin protease inhibitors – biochemical, fluorescence polarization, uHTS hits, dose response (AID 602369); format: functional
[6] = target: 72 kDa type IV collagenase (Homo sapiens, UniProt P08253); experiment: Dose Response validation of uHTS RPN11 inhibitor hits using a MMP-2 Fluorescence assay.; format: functional
H9c2 = experiment: cells; format: functional, cell-based; conditions: Rattus norvegicus, H9c2, Myocardium;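 note: confirmatory concentration-response retest of ultra-high-throughput screening hits for modulation of myocardial damage; cell death induced by hydrogen peroxide oxidative stress; compound pretreatment for 60 min then peroxide exposure for 2 h; potency is for protecting the cells against peroxide damage rather than for killing them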
[7] = target: 26S proteasome non-ATPase regulatory subunit 14 (Homo sapiens, UniProt O00487); experiment: inhibition of proteasome subunit RPN11 – biochemical, fluorescence polarization, uHTS hits, confirmation (AID 602368); format: functional
[8] = target: T5, Probable nicotinate-nucleotide adenylyltransferase (Staphylococcus aureus (strain N315), UniProt P65502); format: functional, Staphylococcus aureus subsp. aureus N315;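 for IC50 Mean: confirmatory dose-response retesting of NadD inhibitor hits first found in an ultra-high-throughput screen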
[9] = target: T5, Probable nicotinate-nucleotide adenylyltransferase; format: functional, Staphylococcus aureus subsp. aureus N315; conditions: read-out: IC50_Mean
HEK293 = experiment: EBV LMP1 TES2 canonical NF-kB signalling blockers – cell-based, HEK293, luciferase, cherry-pick, dose response (AID 588343); format: functional; conditions: Homo sapiens
[10] = target: T6, Latent membrane protein 1 (Human herpesvirus 4 (strain B95-8), UniProt P03230); experiment: LMP1 TES1 pathway selectivity over dsRED control – imaging, HEK293T, dual-color eGFP/dsRED, cherry-picks, selectivity assay for LMP1 NF-kB inhibitor project, dose response (AID 588398); format: functional, cell-based
T6 sequence (P03230 whole entry): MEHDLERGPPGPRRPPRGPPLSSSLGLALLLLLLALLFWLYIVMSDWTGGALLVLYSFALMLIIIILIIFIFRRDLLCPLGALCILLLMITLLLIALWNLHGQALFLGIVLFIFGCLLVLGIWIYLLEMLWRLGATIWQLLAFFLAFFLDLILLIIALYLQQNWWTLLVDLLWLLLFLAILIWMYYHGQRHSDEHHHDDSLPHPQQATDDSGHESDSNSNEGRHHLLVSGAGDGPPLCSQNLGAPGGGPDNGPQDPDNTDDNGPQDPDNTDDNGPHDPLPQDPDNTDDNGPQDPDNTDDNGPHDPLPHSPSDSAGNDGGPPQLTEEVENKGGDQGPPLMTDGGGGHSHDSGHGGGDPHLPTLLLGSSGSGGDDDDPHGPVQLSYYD

T5 sequence (P65502 whole entry): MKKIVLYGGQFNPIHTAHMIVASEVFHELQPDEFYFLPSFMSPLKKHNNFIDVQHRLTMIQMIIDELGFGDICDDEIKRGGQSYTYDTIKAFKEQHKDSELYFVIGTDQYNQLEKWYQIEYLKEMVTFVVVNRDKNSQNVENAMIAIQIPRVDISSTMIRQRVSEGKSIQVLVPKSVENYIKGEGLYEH
72 kDa type IV collagenase, sequence (P08253 whole entry): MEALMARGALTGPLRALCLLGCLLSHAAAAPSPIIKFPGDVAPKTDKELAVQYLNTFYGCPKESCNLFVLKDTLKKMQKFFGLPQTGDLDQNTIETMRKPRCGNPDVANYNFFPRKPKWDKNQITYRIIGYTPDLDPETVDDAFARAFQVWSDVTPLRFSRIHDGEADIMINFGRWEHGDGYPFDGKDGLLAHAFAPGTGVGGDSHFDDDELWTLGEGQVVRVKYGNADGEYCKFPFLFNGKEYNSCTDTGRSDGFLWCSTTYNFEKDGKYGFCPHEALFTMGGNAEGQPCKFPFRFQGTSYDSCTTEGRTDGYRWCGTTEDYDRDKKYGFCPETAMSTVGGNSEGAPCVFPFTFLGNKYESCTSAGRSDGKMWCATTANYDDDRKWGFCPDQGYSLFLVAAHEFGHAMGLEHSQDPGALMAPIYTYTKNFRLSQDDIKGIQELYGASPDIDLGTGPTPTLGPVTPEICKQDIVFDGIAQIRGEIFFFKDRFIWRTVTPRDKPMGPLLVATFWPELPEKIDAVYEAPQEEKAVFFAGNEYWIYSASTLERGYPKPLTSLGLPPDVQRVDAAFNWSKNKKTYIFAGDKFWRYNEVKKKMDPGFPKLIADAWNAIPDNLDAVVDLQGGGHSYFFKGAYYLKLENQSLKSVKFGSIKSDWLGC
26S proteasome non-ATPase regulatory subunit 14, sequence (O00487 whole entry): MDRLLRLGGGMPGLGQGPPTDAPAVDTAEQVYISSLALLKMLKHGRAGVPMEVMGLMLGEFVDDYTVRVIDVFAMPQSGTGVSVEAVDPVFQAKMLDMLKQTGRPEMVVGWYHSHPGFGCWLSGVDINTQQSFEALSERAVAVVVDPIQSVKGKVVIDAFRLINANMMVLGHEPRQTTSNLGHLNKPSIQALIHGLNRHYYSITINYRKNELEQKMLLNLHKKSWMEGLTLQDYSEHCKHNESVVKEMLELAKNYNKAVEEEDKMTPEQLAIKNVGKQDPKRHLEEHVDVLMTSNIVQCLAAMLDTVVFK

CC(C)N(Cc1cc2ccccc2nc1O)C(=O)C1CCCCC1
IC50 [1]: 13.6 µM (active)

N#C/C(=C\c1cn(-c2ccccc2)nc1-c1cc2ccccc2o1)c1nc2ccccc2[nH]1
EC50 [2]: > 99 µM (inactive)
EC50 [3]: 7.03 µM (active)

Cn1c(=O)[nH]c2nncnc2c1=O
GI50 (P388): 25.8 µM (inactive)
GI50 (P388/ADR): 213 µM (inactive)
GI50 (SN12K1): 65.8 µM (inactive)
IC50 [1]: 15.4 µM (active)
IC50 [4]: 1.62 µM (active)
IC50 [5]: 2.08 µM (active)
AC50 (Caspase-6): 7.06 µM (active)

COc1ccc(-c2ccc3c(c2)S(=O)(=O)c2cccc(C(=O)N4CCN(c5c(Cl)cncc5Cl)CC4)c2C3=O)cc1OC
IC50 (Prothrombin): 29.3 µM (active)
IC50 [6]: > 100 µM (inactive)
IC50 (H9c2): > 79 µM (inactive)
IC50 [7]: 21.7 µM (active)

CCn1c2ccccc2c2cc(/C=N/n3c(S)nnc3-c3cc(C)[nH]n3)ccc21
IC50 [8]: 8.02 µM (active)
IC50 [9]: 33.7 µM (active)
AC50 (HEK293): 8.12 µM (active)
AC50 [10]: 0.288 µM (active)
